Experimental data from ChEMBL document CHEMBL1133829, “Design and synthesis of a novel class of histone deacetylase inhibitors” (Bioorg Med Chem Lett, 2001).

Key:
Histone deacetylase 1 [1] = biological target: T1, Histone deacetylase 1 (Homo sapiens, UniProt Q13547); test: Concentration of compound required for acetylation of histone-4 in human T24 cancer cells; type: functional, cell-based, Cancer cell lines
HCT-116 = test: In vitro antiproliferative activity against human colon cancer HCT 116 cells determined by […] assay; type: functional, cell-based
Histone deacetylase 1 [2] = biological target: T1, Histone deacetylase 1; test: In vitro inhibition of partially purified recombinant human Histone deacetylase 1
Mus musculus [3] = test: In vivo inhibition of non small cell lung carcinoma A549 tumor in nude mice administered with a daily dose of 20 mg/kg for 21 days; type: functional; conditions: A549, 504 h
Mus musculus [4] = test: In vivo inhibition of non small cell lung carcinoma A549 tumor in nude mice administered with a daily dose of 50 mg/kg for 21 days; type: functional; conditions: A549, 504 h
Mus musculus [5] = test: In vivo inhibition of non small cell lung carcinoma A549 tumor in nude mice administered with a daily dose of 40 mg/kg for 21 days; type: functional; conditions: A549, 504 h

T1 sequence (Q13547 whole entry): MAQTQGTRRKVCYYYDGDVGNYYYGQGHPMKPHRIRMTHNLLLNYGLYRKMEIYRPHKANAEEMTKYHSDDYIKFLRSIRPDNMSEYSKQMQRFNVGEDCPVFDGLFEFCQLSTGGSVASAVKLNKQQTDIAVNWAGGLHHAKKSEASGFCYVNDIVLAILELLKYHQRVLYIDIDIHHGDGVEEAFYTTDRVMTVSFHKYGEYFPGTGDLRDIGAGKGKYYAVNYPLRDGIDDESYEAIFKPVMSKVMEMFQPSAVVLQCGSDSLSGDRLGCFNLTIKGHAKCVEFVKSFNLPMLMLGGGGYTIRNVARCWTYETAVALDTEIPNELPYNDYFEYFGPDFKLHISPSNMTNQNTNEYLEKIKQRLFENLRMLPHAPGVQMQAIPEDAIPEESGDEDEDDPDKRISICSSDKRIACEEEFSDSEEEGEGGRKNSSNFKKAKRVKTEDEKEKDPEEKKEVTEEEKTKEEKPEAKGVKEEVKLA

| Compound | EC50 (Histone deacetylase 1 [1]) | EC50 (HCT-116) | IC50 (Histone deacetylase 1 [2]) | inhibition in vivo at 20 mg/kg (Mus musculus [3]) | inhibition in vivo at 50 mg/kg (Mus musculus [4]) | inhibition in vivo at 40 mg/kg (Mus musculus [5]) |
| --- | --- | --- | --- | --- | --- | --- |
| Cc1ccc(S(=O)(=O)Nc2ccc(/C=C/C(=O)NO)cc2)cc1 | 10000 nM | 700 nM |  |  |  |  |
| O=C(/C=C/c1ccc(NS(=O)(=O)c2ccccc2)cc1)NO |  | 3000 nM |  |  |  |  |
| O=C(/C=C/c1ccc(NS(=O)(=O)c2ccc(Cl)cc2)cc1)NO |  | 1000 nM |  |  |  |  |
| O=C(Cc1ccc(NS(=O)(=O)c2ccccc2)cc1)NO | > 25000 nM | 22000 nM | 1000 nM |  |  |  |
| COc1ccc(S(=O)(=O)Nc2ccc(/C=C/C(=O)NO)cc2)cc1 | 5000 nM | 400 nM | 60 nM |  |  |  |
| O=C(/C=C/c1ccc(NS(=O)(=O)c2ccc(Cl)cc2Cl)cc1)NO | > 25000 nM | 4000 nM |  |  |  |  |
| O=C(/C=C/c1ccc(NS(=O)(=O)c2ccc(Cl)c(Cl)c2)cc1)NO | 5000 nM | 2000 nM | 100 nM |  |  |  |
| CC(C)C(Cc1ccc(NS(=O)(=O)c2ccccc2)cc1)C(=O)NO (stereo unspecified) | > 25000 nM | 30000 nM | > 25000 nM |  |  |  |
| O=C(CCc1ccc(NS(=O)(=O)c2ccccc2)cc1)NO | 5000 nM | 2000 nM |  |  |  |  |
| COc1ccc(S(=O)(=O)Nc2ccc(/C=C/C(=O)NO)cc2)cc1OC | 1000 nM | 200 nM |  | 41% | 57% | 50% |
| CC(/C=C/C(=O)NO)=C\[C@@H](C)C(=O)c1ccc(N(C)C)cc1 [TRICHOSTATIN] |  | 1000 nM |  |  |  |  |
